Experimental data from patent US20100086520A1, “Compositions, Kits and Uses For Protecting The Skin Against Pathogenic Microorganisms” (OrganoBalance GmbH, priority 2006, published 2010).
Bridge positions count the residues as written; N and C are the ends. Square brackets hold non-standard residues; d marks the D form. Peptide text beside a SMILES is read from it. * marks the point of attachment. Ileψ(thiazoline)Cys = CC[C@H](C)[C@H](N)C1=N[C@H](C(=O)*)CS1; dOrn = NCCC[C@@H](N)C(=O)O

Columns and labels:
resident flora = details: infants, after treatment with the antibiotic; cited from earlier work
Candida albicans = details: in vivo; cited from earlier work
[1] = tested on: Staphylococcus aureus (DSM346); experiment: in-vitro-hole plate assay, growth inhibition of S. aureus in comparison to bacitracin and erythromycin (Example 12); assay type: cell-based; details: BHI agar, pre-cut holes; antibiotics at different concentrations, defined numbers of Lactobacillus cells; FIG. 10A/10B
Text: The degree of growth inhibition of the microorganism(s) of the transient pathogenic skin micro flora in comparison to the inhibition of growth of at least one such microorganism after the use of an antibiotic can preferably be observed in vitro, more preferably in an assay in which a microorganism according to aspect (ii) of the invention, as described herein above, is contacted with one or more microorganisms of the transient pathogenic skin micro flora and the growth of the(se) microorganism(s) of the transient pathogenic skin micro flora is determined. Most preferably, the comparison of growth inhibition can be determined in an “in vitro hole plate assay” as described in the Examples and mentioned herein above. […]
This effect has been compared to commercial antibiotic cream preparations of bacitracin and erythromycin. […] The diameter of the inhibition zones has been measured and the area of inhibition has been calculated thereof. […]

Compound	repression of the resident flora (resident flora)	increase of the pathogenic yeast Candida albicans (Candida albicans)	growth inhibition of the indicator strain S. aureus (inhibition zone, area of inhibition) [1]
CC1(C)S[C@@H]2[C@H](NC(=O)[C@H](N)c3ccc(O)cc3)C(=O)N2[C@H]1C(=O)O [amoxicillin]	about 50%	more than a fourteen-fold increase	–
CC[C@H](C)[C@H](N)C1=N[C@H](C(=O)N[C@@H](CC(C)C)C(=O)N[C@H](CCC(=O)O)C(=O)N[C@H](C(=O)N[C@H]2CCCCNC(=O)[C@H](CC(N)=O)NC(=O)[C@@H](CC(=O)O)NC(=O)[C@H](Cc3cnc[nH]3)NC(=O)[C@@H](Cc3ccccc3)NC(=O)[C@H]([C@@H](C)CC)NC(=O)[C@@H](CCCN)NC2=O)[C@@H](C)CC)CS1 [bacitracin] ({Ileψ(thiazoline)Cys}-L[dE]IK[dOrn]I[dF]H[dD]N; lactam 4-C)	–	–	growth inhibition of the indictator strain S. aureus has been observed
CC[C@H]1OC(=O)[C@H](C)[C@@H](O[C@H]2C[C@@](C)(OC)[C@@H](O)[C@H](C)O2)[C@H](C)[C@@H](O[C@@H]2O[C@H](C)C[C@H](N(C)C)[C@H]2O)[C@](C)(O)C[C@@H](C)C(=O)[C@H](C)[C@@H](O)[C@]1(C)O [erythromycin]	–	–	growth inhibition of the indictator strain S. aureus has been observed
Lactobacillus delbrückii ssp. delbrückii OB-LB-Sa3	–	–	growth inhibition of S. aureus
